{"source": "patent US12012415B2", "about": "“Compositions and methods for the diagnosis, treatment and prevention of neoplastic and neurological disorders” (AscentGene, Inc., priority 2018, dated 2024)", "format_in_all_cases": "in vivo, rats", "key": {"[1]": {"system": "Aβ1-42-induced cognitive impairments", "experiment": "Open field test in Aβ1-42 Alzheimer's disease rat model", "conditions": "for number of entries into the center zone: 1 mg/kg i.v. daily 14 days, vs Aβ1-42 group; for total distance / traveling speed: open field, between the four groups", "experimental": "(§1) Aβ1-42 (Sigma-Aldrich, St. Louis, MO, USA;) was dissolved in double-distilled water at the concentration of 5 μg/μl, and incubated at 37° C. for one week before surgery. The rats were randomly divided into four groups as Sham (n=8), Sham+AG-1601 (n=8), Aβ1-42 (n=8) and Aβ1-42+AG-1601 (n=8). The Alzheimer's disease rat models were established by intracerebroventricular (i.c.v.) injection of Aβ1-42 aggregates. The animals were anesthetized with intraperitoneal injection of pentobarbital sodium (50 mg/kg) and placed in a stereotaxic apparatus (Narishige, Japan). The head skin of the rat was opened and two small holes were drilled on both sides of skull following the coordinates: 0.8 mm posterior to bregma, +1.4 mm lateral to sagittal suture, 4.0 mm beneath the surface of brain. Aβ1-42 (2.0 μl per side) was injected bilaterally into the lateral ventricles through micro-syringe. The needle was taken out after 5 minutes of the injection to ensure the aggregates were infused completely. Rats in the Sham group underwent the same operational process, but same volumes of double-distilled water were injected instead of Aβ1-42. After surgery, all rats were injected with penicillin (100,000 U) in the hindquarter muscle to prevent infection. The animals of Sham+AG-1601 and Aβ1-42+AG-1601 groups were intravenous injection with AG-1601 (1 mg/kg), while the same volume vehicle was implemented for the other groups every day for 14 days after one week of the postoperative recovery.\nThe open field test was carried out to evaluate locomotor activity and exploratory behavior. This test was conducted as described previously with little modifications (Sugita et al., 2015). The open field test consists of a circular apparatus (80 cm in diameter, 30 cm high). The circular apparatus was divided into the center zone (30 cm in diameter in the middle of the arena) and the concentric outer circle zone. Rats were placed individually in the outer circle of the apparatus and allowed to explore freely for 5 min. The path of each rat was tracked by a camera-driven tracker system (Ethovision2.0, Noldus, Wagenigen, Netherlands). The number of entries into the center zone, the total distance and the traveling speed during the testing were analyzed."}, "C6 glioma": {"system": "C6 glioma", "experiment": "C6 intracranial glioma rat model", "experimental": "SD male rate were intracranially injected with DMEM medium in 10 μl (sham and small plus AG-1601), and C6 cell at 1×10^6 in 10 μl (glioma and glioma plus AG-1601). C6 cells, a type of murine glioma cell lines, were injected into the right striatum in rats to induce glioma formation. C6 cells were cultured in DMEM containing 10% FBS. C6 cells were suspended in DMEM to implant in rats. Rats injected DMEM containing 10% FBS were grouped as Sham. Tumor formation continued for 7 days, followed by AG1601 was intravenous injected once a day for 6 days. Physical findings included: body weight/2d; effects on synaptic plasticity; electrophysiological tests of LTP and CA3-CA1; mechanism of the study (BDNF/TrkB signaling pathway); Western blot; Synaptic plasticity: BDNF/TrkB/PI3K/Akt/NMDA/PSD95/SYP; Tumor suppression: BDNF/TrkB/RAS/ERK/Bcl-2/Bax; Histology and immunohistochemical analysis; HE staining and immunohistochemistry staining; characterization of brain tumor (localization, size, and regions)."}, "SIRT1 and p-CREB": {"system": "SIRT1 and p-CREB", "experiment": "Western blot of SIRT1, CREB and p-CREB in hippocampus, Aβ1-42 AD rat model", "conditions": "vs Aβ1-42 group", "experimental": "as §1\nThree rats of each group were randomly selected to be sacrificed and their hippocampal tissues were immediately removed at 0° C. and stored at minus 80° C. For subcellular fractionation, 100- to 200-mg weight rat hippocampal tissue was used. The procedure has been described (Yang et al., 2017). The tissues were homogenized for 30 s in 500 μl TEVP buffer containing 320 mM sucrose and the homogenate was obtained. The homogenate (H) was centrifuged at 900×g for 10 min at 4° C., and the supernatant (S1) was centrifuged for 20 min at 10000×g at 4° C. to obtain the cytosolic/light membrane fraction (S2) and the crude synaptosomal fraction pellet (P2). The pellet was resuspended in TEVP buffer containing 35.6 mM sucrose solution and then centrifuged at 25,000×g for 20 min at 4° C. The supernatant was stored at minus 80° C. and referred as the synaptic vesicular fraction (LS1). The pellet, synaptic plasma membranes (LP1), was resuspended in TEVP buffer containing 1% Triton X-100 and centrifuged at 330,000×g for 30 min at 4° C. The supernatant referred as Triton X-100-soluble fraction (TSF) was stored at minus 80° C. The final pellet, the Triton X-100-insoluble fraction (TIF), was homogenized in TEVP buffer containing 1% SDS.\nThe total homogenate (H) and synaptosomal fractions were analyzed. Equal amounts of 20 μg from each sample were separated via 10% or 13% SDS-PAGE gels and subsequently transferred onto PVDF membranes (Millipore, USA). […] After washing with TBST buffer, signals were visualized with the HRP substrate (Millipore, USA) and detected with a chemiluminescence kit (Tanon 5500, Tanon Science & Technology, China). The gray-scale value of protein band was quantified by NIH Image J program."}}, "data": [{"smiles": "C=CC1=C(C)c2cc3[nH]c(cc4nc(cc5[nH]c(cc1n2)c(C)c5C=C)C(C)=C4CCC(=O)O)c(CCC(=O)NCCCc1ccccc1)c3C", "note": "[AG-1601, 3-(2,8,13,18-tetramethyl-3-(3-oxo-3-((3-phenylpropyl)amino)propyl)-12,17-divinylporphyrin-7-yl)propanoic acid]", "values": [{"measurement": "number of entries into the center zone", "setting": "[1]", "result": "increased dramatically"}, {"measurement": "number of entries into the center zone", "setting": "[1]; listed as AG-1061", "result": "increased significantly"}, {"measurement": "total distance", "setting": "[1]", "result": "no significant effect"}, {"measurement": "traveling speed", "setting": "[1]", "result": "no significant effect"}, {"measurement": "total distance", "setting": "[1]; listed as AG-1061", "result": "no significant difference"}, {"measurement": "traveling speed", "setting": "[1]; listed as AG-1061", "result": "no significant difference"}, {"measurement": "body weights", "setting": "C6 glioma; Glioma vs Glioma+AG1601, 2 weeks", "result": "significant difference was found between them"}, {"measurement": "tumor volumes", "setting": "C6 glioma; Glioma+AG1601 vs Glioma group", "result": "reduced"}, {"measurement": "tumor weights", "setting": "C6 glioma; Glioma+AG1601 vs Glioma group", "result": "reduced"}, {"measurement": "body weights", "setting": "C6 glioma; Sham vs Sham+AG1601, 2 weeks", "result": "without significant difference"}, {"measurement": "survival time", "setting": "C6 glioma; glioma rats treated vs without treatment", "result": "longer"}, {"measurement": "glioma growth", "setting": "C6 glioma; i.v. once a day for 6 days", "result": "could suppress glioma growth"}, {"measurement": "efficacy on C6 xenograft tumor", "setting": "C6 glioma; rat model", "result": "shows efficacy"}, {"measurement": "SIRT1 protein level", "setting": "SIRT1 and p-CREB", "result": "the decline was prevented"}, {"measurement": "expression of CREB", "setting": "SIRT1 and p-CREB", "result": "rescued the reductions"}, {"measurement": "p-CREB level", "setting": "SIRT1 and p-CREB", "result": "significantly increased"}, {"measurement": "SIRT1 protein level", "setting": "SIRT1 and p-CREB; listed as AG-1061", "result": "this decline was prevented"}, {"measurement": "p-CREB level", "setting": "SIRT1 and p-CREB; listed as AG-1061", "result": "significantly increased the expression of p-CREB protein"}]}]}
